Data on three compounds can be found in patent US20140342043A1, “Rebaudioside Sweetener Compositions and Food Products Sweetened with Same” (PepsiCo, Inc., priority 2013, published 2014).

Series [1] deals with 14 expertly trained panelists. The series is described as follows: Sensory studies of sweetness with acidified water samples. It counts as in vivo, human. As to conditions: for Sweetness (score): acidified water, Aspartame 400 ppm, scale 0 to 15, 15 being the sweetest. As to the method: Sensory studies with two sets of acidified water samples were performed and are described below, where Set 1: HFCS-55 11.7%; Aspartame 400 ppm, and rebaudioside M 400 ppm; and Set 2: Aspartame 400 ppm, Rebaudioside M 400 ppm and Rebaudioside D 400 ppm. The sensory studies were conducted by 14 expertly trained panelists with two evaluations performed for each set. The scale for scoring was 0 to 15, with 15 being the sweetest. The letters shown in Table 2 and Table 3, along with the numerical sweetness values will be understood by those skilled in the art to designate whether or not a statistically significant difference in taste was found. Thus, it can be seen in Table 1 that for Set 1 a statistically significant difference was found between the three sweeteners. It can be seen in Table 2 that for Set 2 a statistically significant difference in sweetness was found for rebaudioside M versus the other two sweeteners. More generally, it can be seen that for both Set 1 and Set 2, rebaudioside M had noticeably higher sweetness values.

Series [2] in a line: Solubility in cola syrup preparation. It counts as physicochemical. The settings on record: cola syrup for 1-plus-5 throw. The procedure: Samples of finished ready-to-drink cola beverage were prepared for each of three different formulations. The formulations were identical except that syrup variant 1 used rebaudioside A as the sweetener, syrup variant 2 used rebaudioside D as the sweetener, and syrup variant 3 used rebaudioside M as the sweetener in accordance with one aspect of the invention of the present disclosure. For the ready-to-drink cola beverage samples of formulation variant 1 and formulation variant 3, 2.0 liters of syrup were prepared suitable for use in a 1-plus-5 throw with carbonated water to make the corresponding ready-to-drink cola beverage samples. To prepare variant 1 (comprising rebaudioside A as the sweetener) and variant 3 (comprising rebaudioside M as the sweetener), the ingredients listed in Table 4, below, were added (in the sequence listed) to approximately 1.0-1.5 liter purified water with stirring. Purified water was then added until the syrup was 2 liters in volume. Then 50 mL portions of the syrup were added respectively to 250 mL portions of carbonated water, i.e., a “1-plus-5 throw” to obtain samples of finished ready-to-drink cola beverage corresponding to each of the two syrup variants. […] Specifically, the unsweetened cola beverage samples were made first in sample bottles. Then, to each bottle 400 ppm of Reb D was carefully added in. […]

Series [3] in a line: Differential scanning calorimetry (FIG. 4). It counts as physicochemical. As to conditions: second DSC run showing little change. From the text:
FIG. 4 is a differential scanning calorimetry graph for rebaudioside M.

The nature of series [4]: Taste comparison of rebaudioside M with other potent sweeteners in beverages. It counts as in vivo.
[5] abbreviates: Table 2, Rebaudioside D 400 ppm, Rebaudioside M 400 ppm.
Where [6] appears, read: Table 3, HFCS-55 11.7%, rebaudioside M 400 ppm.

Residues, ends and D or L forms follow the SMILES beside them.

For the compound `COC(=O)[C@H](Cc1ccccc1)NC(=O)[C@@H](N)CC(=O)O` [Aspartame, reference compound] (H-Asp-Phe-OMe), the “Sweetness (score)” value in series [1] (setting [5]) is 6.39; in series [1] (setting [6]), 6.30.

As to `C=C1C[C@@]23CC[C@H]4[C@@](C)(CCC[C@@]4(C)C(=O)O[C@@H]4O[C@H](CO)[C@@H](O)[C@H](O)[C@H]4O[C@@H]4O[C@H](CO)[C@@H](O)[C@H](O)[C@H]4O)[C@@H]2CC[C@]1(O[C@@H]1O[C@H](CO)[C@@H](O)[C@H](O[C@@H]2O[C@H](CO)[C@@H](O)[C@H](O)[C@H]2O)[C@H]1O[C@@H]1O[C@H](CO)[C@@H](O)[C@H](O)[C@H]1O)C3` [Rebaudioside D, rebaudioside D, reference compound], the “Sweetness (score)” value in series [1] (setting [5]) turned out to be 6.97. The Solubility result in series [2] is on record as “poor solubility”.

For `C=C1C[C@@]23CC[C@H]4[C@@](C)(CCC[C@@]4(C)C(=O)O[C@@H]4O[C@H](CO)[C@@H](O)[C@H](O[C@@H]5O[C@H](CO)[C@@H](O)[C@H](O)[C@H]5O)[C@H]4O[C@@H]4O[C@H](CO)[C@@H](O)[C@H](O)[C@H]4O)[C@@H]2CC[C@]1(O[C@@H]1O[C@H](CO)[C@@H](O)[C@H](O[C@@H]2O[C@H](CO)[C@@H](O)[C@H](O)[C@H]2O)[C@H]1O[C@@H]1O[C@H](CO)[C@@H](O)[C@H](O)[C@H]1O)C3` [Rebaudioside M, rebaudioside M], in series [3], the Thermo-stability entry was “good thermo-stability”. Moreover, in series [4] (in vivo), the “Sweetness intensity relative to Reb A” value is “significantly higher than Reb A”. Moreover, in series [4] (otherwise identical acidic aqueous carbonated beverages), the “Bitterness relative to the same concentration of rebaudioside A” value was “significantly lower bitterness”. Also, the “Sweetness (score)” value in series [1] (setting [5]) is reported as 7.58; in series [1] (setting [6]), 8.00. Also, the “Sweetness relative to other sweeteners” value in series [1] (conclusion from Table 2 and Table 3, 400 ppm in acidified water) is “significantly sweeter than aspartame and rebaudioside D”.
